The results in this text go back to ChEMBL document CHEMBL4354805, “Discovery of MK-8719, a Potent O-GlcNAcase Inhibitor as a Potential Treatment for Tauopathies” (J Med Chem, 2019).

A short description of data set [1]: Drug excretion in rat urine at 10 mg/kg, po. The class given is ADME, organism-based. The note with it: read-out: Drug excretion.
The nature of data set [2]: Drug excretion in rat bile at 10 mg/kg, po. The data set is classed as ADME, organism-based. The note with it: read-out: Drug excretion.
Data set [3] is described as follows: Drug excretion in rat feces at 10 mg/kg, po. The class given is ADME, organism-based. The note with it: faeces, read-out: Drug excretion.
A short description of data set [4]: Drug excretion in rat cage at 10 mg/kg, po. Conditions: read-out: Drug excretion. The data set is classed as ADME, organism-based.
The nature of data set [5]: Drug excretion in rat at 10 mg/kg, po. The data set is classed as ADME, organism-based. Conditions: in vivo, read-out: Drug excretion.
Data set [6] can be described thus: Drug excretion in dog urine at 3 mg/kg, po. The class given is ADME, organism-based, Canis lupus familiaris. Conditions: read-out: Drug excretion.
The nature of data set [7]: Drug excretion in dog bile at 3 mg/kg, po. The note with it: read-out: Drug excretion. The class given is ADME, organism-based, Canis lupus familiaris.
The nature of data set [8]: Drug excretion in dog cage at 3 mg/kg, po. The class given is ADME, organism-based, Canis lupus familiaris. The note with it: read-out: Drug excretion.
Data set [9] can be described thus: Drug excretion in dog at 3 mg/kg, po. The data set is classed as ADME, organism-based, Canis lupus familiaris. Conditions: in vivo, read-out: Drug excretion.
Data set [10] in a line: AUC (0 to 24 hrs) in rat brain at 10 mg/kg, po measured upto 24 hrs. Set-up: dose 10 mg/kg, time < 24 hr, route oral. The note with it: in vivo. The class given is ADME, organism-based.
Data set [11] can be described thus: Tmax in rat brain at 10 mg/kg, po measured upto 24 hrs. The data set is classed as ADME, organism-based.
Data set [12] has as its system MDR1. As to the kind of experiment: Apparent permeability in pig LLC-PK1 cells transfected with MDR1. The data set is classed as ADME, cell-based, Sus scrofa.
Data set [13] is described as follows: Ratio of Cmax in brain to plasma in rat at 10 mg/kg, po. The data set is classed as ADME, organism-based.
Data set [14] can be described thus: Fraction unbound in human plasma at 2.5 uM by equilibrium dialysis. The data set is classed as ADME, cell-free. In general terms: Equilibrium dialysis compares concentrations on both sides of a semipermeable membrane.
The target in data set [15] is T1, Beta-hexosaminidase subunit beta (Homo sapiens, UniProt P07686).
T1 sequence (P07686 whole entry): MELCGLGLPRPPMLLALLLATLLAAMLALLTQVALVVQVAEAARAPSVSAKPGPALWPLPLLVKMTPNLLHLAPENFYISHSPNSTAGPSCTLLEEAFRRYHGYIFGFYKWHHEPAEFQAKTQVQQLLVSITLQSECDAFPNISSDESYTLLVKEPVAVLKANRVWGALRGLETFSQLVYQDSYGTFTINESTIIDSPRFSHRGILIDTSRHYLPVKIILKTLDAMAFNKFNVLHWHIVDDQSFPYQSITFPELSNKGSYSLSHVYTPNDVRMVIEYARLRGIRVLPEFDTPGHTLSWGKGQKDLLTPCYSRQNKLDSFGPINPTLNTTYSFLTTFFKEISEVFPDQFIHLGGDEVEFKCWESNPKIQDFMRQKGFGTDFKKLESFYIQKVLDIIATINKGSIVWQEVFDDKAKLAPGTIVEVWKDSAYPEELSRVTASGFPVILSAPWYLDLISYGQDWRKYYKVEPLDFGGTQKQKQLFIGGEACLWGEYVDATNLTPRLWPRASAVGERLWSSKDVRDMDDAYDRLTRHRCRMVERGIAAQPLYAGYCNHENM
As to the kind of experiment: Inhibition of human beta hexosaminidase assessed as inhibitory constant using 4-methylumbelliferyl N-acetyl-beta-D-glucosaminide dihydrate as substrate measured every 60 sec for 45 mins by fluorescence spectrophotometry.

Data set [16] can be described thus: Fraction unbound in Wistar Han rat plasma at 2.5 uM by equilibrium dialysis. The class given is ADME, cell-free.
The nature of data set [17]: AUCN in Wistar Han rat at 10 mg/kg, po. The data set is classed as ADME, organism-based. The note with it: in vivo.
Data set [18] in a line: Clearance in Wistar Han rat at 2 mg/kg, iv. The note with it: in vivo. The data set is classed as ADME, organism-based.
Data set [19] in a line: Half life in Wistar Han rat at 2 mg/kg, iv. The class given is ADME, organism-based. Conditions: in vivo.
Data set [20] in a line: Volume of distribution at steady state in Wistar Han rat at 2 mg/kg, iv or 10 mg/kg, po. The data set is classed as ADME, organism-based. The note with it: in vivo, read-out: Vdss.
The nature of data set [21]: Oral bioavailability in Wistar Han rat at 10 mg/kg. The data set is classed as ADME, organism-based. The note with it: in vivo.
The nature of data set [22]: Drug uptake in rat brain at 3 mg/kg, po measured after 8 hrs. The data set is classed as ADME, organism-based. The note with it: in vivo.
Data set [23] in a line: Drug uptake in rat brain at 3 mg/kg, po measured after 24 hrs. The data set is classed as ADME, organism-based. The note with it: in vivo.
Data set [24] is described as follows: Ratio of drug uptake in rat brain to plasma at 3 mg/kg, po measured after 8 hrs. The data set is classed as ADME, organism-based. Conditions: read-out: BPR.
Data set [25] in a line: Ratio of drug uptake in rat brain to plasma at 3 mg/kg, po measured after 24 hrs. The data set is classed as ADME, organism-based. Conditions: read-out: BPR.
Data set [26] deals with Voltage-gated inwardly rectifying potassium channel KCNH2 (Homo sapiens, UniProt Q12809). Put plainly: Displacement of MK-0499 from human ERG.
For data set [27], the target named is Sodium channel protein type 5 subunit alpha (Homo sapiens, UniProt Q14524). Put plainly: Inhibition of Nav1.5 (unknown origin).
For data set [28], the target named is Voltage-dependent L-type calcium channel subunit alpha-1C (Homo sapiens, UniProt Q13936). As to the kind of experiment: Inhibition of Cav1.2 (unknown origin).
Data set [29] deals with Cytochrome P450 3A4 (Homo sapiens, UniProt P08684). Put plainly: Inhibition of CYP3A4 (unknown origin). The class given is ADME.
The target of data set [30] is Cytochrome P450 2D6 (Homo sapiens, UniProt P10635). As to the kind of experiment: Inhibition of CYP2D6 (unknown origin). The class given is ADME.
Data set [31] has as its target Cytochrome P450 2C9 (Homo sapiens, UniProt P11712). Put plainly: Inhibition of CYP2C9 (unknown origin). The class given is ADME.
Data set [32] deals with T2, Nuclear receptor subfamily 1 group I member 2 (Homo sapiens, UniProt O75469).
T2 sequence (O75469 whole entry): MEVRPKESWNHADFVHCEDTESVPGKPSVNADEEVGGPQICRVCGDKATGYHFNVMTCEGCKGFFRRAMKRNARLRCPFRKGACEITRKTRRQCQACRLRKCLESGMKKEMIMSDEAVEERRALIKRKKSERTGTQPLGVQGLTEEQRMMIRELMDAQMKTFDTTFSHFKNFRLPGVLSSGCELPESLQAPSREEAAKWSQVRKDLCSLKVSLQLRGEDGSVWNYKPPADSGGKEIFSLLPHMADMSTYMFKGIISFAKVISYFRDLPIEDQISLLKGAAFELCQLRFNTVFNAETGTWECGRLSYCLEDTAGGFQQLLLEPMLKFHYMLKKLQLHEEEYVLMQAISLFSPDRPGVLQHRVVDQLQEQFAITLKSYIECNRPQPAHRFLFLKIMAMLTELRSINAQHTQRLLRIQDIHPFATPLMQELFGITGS
As to the kind of experiment: Activation of PXR (unknown origin) assessed as CYP3A4 induction.

Data set [33] in a line: Fraction unbound in human plasma. The data set is classed as ADME, cell-free.

Molecules are shown by their SMILES.

Sequence of Voltage-gated inwardly rectifying potassium channel KCNH2 (Q12809 whole entry): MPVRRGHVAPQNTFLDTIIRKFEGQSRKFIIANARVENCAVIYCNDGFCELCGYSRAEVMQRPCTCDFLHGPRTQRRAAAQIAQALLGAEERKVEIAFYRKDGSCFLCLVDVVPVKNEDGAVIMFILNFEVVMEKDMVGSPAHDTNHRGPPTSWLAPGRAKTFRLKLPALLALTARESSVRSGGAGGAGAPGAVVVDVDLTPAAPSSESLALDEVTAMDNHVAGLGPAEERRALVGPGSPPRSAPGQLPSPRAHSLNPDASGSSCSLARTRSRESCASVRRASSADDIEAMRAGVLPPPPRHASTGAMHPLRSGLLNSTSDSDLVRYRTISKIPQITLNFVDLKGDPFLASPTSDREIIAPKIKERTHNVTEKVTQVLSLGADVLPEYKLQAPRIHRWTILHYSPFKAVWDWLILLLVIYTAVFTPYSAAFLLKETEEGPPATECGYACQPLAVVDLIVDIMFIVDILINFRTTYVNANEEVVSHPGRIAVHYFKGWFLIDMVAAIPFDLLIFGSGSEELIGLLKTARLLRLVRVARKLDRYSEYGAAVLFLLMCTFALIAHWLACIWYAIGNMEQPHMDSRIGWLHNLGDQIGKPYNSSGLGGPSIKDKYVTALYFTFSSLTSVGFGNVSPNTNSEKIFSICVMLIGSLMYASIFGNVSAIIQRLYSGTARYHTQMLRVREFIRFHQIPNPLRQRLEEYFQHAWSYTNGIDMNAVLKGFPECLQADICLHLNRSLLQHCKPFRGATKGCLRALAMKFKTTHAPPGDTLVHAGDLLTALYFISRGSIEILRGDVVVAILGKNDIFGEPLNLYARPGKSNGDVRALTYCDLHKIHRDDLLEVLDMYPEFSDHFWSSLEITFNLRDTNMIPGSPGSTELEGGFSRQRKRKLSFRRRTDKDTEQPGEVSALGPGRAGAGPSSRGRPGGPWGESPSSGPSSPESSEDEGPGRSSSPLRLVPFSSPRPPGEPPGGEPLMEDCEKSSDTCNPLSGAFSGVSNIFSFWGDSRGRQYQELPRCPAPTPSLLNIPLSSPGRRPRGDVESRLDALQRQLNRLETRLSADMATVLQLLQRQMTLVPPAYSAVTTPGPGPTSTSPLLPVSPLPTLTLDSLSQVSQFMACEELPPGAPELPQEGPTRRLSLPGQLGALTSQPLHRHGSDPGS
Sequence of Cytochrome P450 2D6 (P10635 whole entry): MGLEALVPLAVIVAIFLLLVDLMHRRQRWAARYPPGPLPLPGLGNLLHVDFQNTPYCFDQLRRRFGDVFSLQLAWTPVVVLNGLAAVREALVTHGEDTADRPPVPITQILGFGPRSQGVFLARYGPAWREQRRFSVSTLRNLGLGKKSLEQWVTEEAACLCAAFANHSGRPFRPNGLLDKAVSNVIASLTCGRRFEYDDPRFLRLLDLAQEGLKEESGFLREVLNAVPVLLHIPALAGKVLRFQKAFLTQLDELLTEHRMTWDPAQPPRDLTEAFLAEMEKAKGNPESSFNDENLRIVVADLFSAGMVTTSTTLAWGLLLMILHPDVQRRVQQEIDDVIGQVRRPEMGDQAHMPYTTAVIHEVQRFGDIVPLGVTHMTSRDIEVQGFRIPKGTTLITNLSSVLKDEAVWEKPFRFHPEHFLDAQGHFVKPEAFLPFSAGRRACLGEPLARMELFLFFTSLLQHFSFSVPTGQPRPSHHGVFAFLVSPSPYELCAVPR
Sequence of Sodium channel protein type 5 subunit alpha (Q14524 whole entry): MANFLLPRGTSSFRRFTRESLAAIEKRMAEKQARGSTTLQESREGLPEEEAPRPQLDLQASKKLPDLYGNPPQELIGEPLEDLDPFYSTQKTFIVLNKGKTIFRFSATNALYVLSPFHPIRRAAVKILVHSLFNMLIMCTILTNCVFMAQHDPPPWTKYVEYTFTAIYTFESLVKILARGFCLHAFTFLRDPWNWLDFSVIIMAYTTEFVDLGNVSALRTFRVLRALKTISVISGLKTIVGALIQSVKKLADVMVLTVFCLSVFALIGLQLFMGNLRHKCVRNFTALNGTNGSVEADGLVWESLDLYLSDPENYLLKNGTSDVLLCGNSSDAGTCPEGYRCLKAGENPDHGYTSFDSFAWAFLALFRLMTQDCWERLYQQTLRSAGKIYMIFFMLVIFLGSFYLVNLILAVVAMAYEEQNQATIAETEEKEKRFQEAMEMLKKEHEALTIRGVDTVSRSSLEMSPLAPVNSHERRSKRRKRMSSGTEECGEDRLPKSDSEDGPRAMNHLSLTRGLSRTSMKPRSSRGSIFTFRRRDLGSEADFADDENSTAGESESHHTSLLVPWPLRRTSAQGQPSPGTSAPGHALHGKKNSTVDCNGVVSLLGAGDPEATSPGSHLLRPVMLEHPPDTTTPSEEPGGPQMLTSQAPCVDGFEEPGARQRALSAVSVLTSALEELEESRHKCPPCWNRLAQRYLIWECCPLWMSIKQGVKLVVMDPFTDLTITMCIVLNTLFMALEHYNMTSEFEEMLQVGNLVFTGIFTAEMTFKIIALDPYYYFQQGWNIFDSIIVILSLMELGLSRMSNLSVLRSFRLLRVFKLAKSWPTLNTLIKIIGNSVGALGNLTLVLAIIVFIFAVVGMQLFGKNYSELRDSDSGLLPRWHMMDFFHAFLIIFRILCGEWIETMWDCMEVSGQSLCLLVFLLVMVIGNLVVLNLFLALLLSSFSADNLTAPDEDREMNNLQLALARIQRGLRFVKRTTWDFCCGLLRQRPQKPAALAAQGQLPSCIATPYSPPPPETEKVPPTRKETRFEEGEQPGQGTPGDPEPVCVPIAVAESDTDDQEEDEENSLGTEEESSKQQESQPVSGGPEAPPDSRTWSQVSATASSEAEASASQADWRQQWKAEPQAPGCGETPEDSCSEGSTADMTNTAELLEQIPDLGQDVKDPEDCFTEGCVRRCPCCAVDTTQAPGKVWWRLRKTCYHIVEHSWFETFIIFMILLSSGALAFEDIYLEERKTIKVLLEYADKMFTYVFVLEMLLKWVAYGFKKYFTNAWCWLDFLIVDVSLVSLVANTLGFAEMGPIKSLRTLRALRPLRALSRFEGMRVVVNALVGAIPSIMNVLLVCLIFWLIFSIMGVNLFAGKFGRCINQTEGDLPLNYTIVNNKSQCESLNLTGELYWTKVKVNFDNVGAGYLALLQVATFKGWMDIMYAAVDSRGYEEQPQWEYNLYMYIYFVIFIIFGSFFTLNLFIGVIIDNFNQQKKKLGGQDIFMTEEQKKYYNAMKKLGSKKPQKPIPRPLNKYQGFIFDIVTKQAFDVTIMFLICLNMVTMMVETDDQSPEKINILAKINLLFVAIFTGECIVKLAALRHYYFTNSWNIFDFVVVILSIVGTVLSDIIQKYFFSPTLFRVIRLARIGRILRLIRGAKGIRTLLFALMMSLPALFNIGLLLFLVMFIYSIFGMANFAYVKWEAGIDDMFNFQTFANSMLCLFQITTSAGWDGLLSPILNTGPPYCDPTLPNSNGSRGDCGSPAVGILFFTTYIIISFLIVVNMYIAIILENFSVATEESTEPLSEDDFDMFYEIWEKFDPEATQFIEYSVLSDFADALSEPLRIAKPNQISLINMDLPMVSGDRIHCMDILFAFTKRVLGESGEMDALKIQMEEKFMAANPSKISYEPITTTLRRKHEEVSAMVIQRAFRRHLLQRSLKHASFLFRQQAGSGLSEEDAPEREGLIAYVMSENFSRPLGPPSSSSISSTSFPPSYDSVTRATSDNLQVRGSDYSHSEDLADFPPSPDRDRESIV
Sequence of Cytochrome P450 2C9 (P11712 whole entry): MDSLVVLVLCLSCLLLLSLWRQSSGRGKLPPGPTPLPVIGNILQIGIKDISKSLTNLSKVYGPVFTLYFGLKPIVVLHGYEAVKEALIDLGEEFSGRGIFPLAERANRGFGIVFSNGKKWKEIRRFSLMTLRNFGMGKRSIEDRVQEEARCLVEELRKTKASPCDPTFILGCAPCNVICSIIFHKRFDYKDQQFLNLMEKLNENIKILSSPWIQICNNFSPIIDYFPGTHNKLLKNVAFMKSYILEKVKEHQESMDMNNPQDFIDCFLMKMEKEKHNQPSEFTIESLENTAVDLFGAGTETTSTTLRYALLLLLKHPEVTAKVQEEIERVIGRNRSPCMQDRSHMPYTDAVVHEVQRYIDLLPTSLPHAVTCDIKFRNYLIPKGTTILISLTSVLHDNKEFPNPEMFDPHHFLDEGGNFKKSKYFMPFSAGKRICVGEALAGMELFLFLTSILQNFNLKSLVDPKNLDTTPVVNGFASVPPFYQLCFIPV
Sequence of Cytochrome P450 3A4 (P08684 whole entry): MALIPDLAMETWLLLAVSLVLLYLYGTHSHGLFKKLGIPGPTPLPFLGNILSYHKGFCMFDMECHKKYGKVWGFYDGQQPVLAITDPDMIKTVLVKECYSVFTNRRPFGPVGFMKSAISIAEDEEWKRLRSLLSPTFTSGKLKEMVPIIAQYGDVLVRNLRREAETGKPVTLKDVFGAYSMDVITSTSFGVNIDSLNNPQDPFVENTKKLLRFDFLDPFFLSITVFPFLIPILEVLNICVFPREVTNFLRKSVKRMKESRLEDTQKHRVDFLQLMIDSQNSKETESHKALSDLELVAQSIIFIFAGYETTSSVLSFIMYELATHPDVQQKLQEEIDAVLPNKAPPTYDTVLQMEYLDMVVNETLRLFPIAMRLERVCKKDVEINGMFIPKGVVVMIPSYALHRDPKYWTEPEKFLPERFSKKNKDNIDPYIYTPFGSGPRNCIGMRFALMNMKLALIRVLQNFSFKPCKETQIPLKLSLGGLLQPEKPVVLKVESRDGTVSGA

`[3H][C@@]1(O)[C@@H](C(F)F)O[C@@H]2SC(NCC)=N[C@@H]2[C@H]1O`: the dose excreted in data set [1] turned out to be 75%; in data set [2], 17%; in [3] it was 0.5%; in data set [4], 3%; in [5] it was 96%; in data set [6], 79%. The dose excreted in data set [7] was 8%; in data set [8], 1%; in [9], 88%.

A word on the Tmax: it is the time from dosing to the highest level. In general, Papp refers to the rate of passage across a membrane or cell layer, normalised by area and donor concentration. The term fraction unbound denotes the share of the substance not bound to proteins or other matrix. A high value points to much free substance. The Ki is the equilibrium dissociation constant of an inhibitor or competing ligand from its target. Broadly, the clearance is the volume of plasma or blood freed of the substance per unit of time. One may read the half-life as how long it takes for the measured level to halve. What is called bioavailability is dose-corrected exposure relative to a reference, in per cent. As a reminder, the IC50 is the point on the concentration scale where inhibition reaches its midpoint. The EC50 is the midpoint of the concentration-response curve. `CCNC1=N[C@@H]2[C@@H](O)[C@H](O)[C@@H](CO)O[C@@H]2S1`: the AUC in data set [10] amounted to 1.14 nM·h/g. Further, in data set [11], the time to peak (Tmax) turned out to be 8 h. The Papp in data set [12] is at most 1 ×10⁻⁶ cm/s. Moreover, in data set [13], the Kp was 0.1. Also, the figures for the fraction unbound at 2.5 µM in [14] and in [16] were 0.76 and 0.73, respectively. Also, the inhibitory constant (Ki) in data set [15] was above 10 µM. Besides, the AUC/dose in [17] was 0.8 µM·kg·h/mg. The molecule further had a clearance in data set [18] of 25 mL/min/kg. For the same molecule, the half-life in data set [19] was 84 min. For the same molecule, the Vd in [20] was determined as 1.5 L/kg. In addition, the bioavailability in data set [21] came to 30%. Besides, the Drug uptake amounted to 0.185 nmol/g in [22] and 0.051 nmol/g in data set [23]. Also, the Kp at 8 h in [24] amounted to 0.94. Also, the Kp at 24 h in data set [25] is above 2.7. Moreover, the IC50 in data set [26] was above 30 µM; in data set [27], above 30 µM; in [28], above 30 µM; in [29], above 50 µM; in data set [30], above 50 µM; in data set [31], above 50 µM. In data set [32], the EC50 was above 30 µM. The unbound share (fraction unbound) in [33] came out at 0.76.
